Where two headings read alike, the source gives them in different places.
Columns and labels:
Assay type in all cases: cell-based
human FXR = molecular target: T1, human FXR (Homo sapiens, UniProt Q96RI1); assay: FXR responsive luciferase reporter gene assay (FXRE-luc + human FXR expression construct) in HepG2 cells; conditions: HepG2, 24 h
T1 construct: expressed in transfected cells; host or cells: HepG2
T1 sequence (Q96RI1 1-486): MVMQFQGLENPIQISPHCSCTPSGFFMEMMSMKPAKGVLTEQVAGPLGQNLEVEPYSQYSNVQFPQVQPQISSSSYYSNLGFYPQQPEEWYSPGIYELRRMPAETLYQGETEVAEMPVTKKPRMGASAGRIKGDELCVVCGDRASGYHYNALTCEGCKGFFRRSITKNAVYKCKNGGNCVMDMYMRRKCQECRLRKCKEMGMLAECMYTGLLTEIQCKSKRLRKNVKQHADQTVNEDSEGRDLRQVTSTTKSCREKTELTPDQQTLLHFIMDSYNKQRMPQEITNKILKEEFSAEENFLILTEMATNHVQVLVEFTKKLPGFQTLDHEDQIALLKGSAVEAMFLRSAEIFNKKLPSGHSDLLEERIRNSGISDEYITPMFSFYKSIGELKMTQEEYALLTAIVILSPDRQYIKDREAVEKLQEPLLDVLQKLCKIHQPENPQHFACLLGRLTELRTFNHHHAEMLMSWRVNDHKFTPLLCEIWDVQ
From the text: (§1) In HepG2 cells, luciferase gene reporter assays have been performed with the transiently transfected reporter gene luciferase construct with the UAS yeast binding site interacting with GAL4 protein (pGL5-UAS 9x, Promega). DNA constructs encoding human LBD domains of human PPARα, PPARγ, of LXRα (pGAL4-PPARα, pGAL4-PPARγ, pGAL4-LXRα) have been cotransfected with the reporter construct. For FXR, FXRE-luc construct with FXR response elements upstream of Firefly luciferase has been used together with an expression construct for human FXR for HepG2 cells transfection. HepG2 cells were then treated with compounds of the invention for 24 h.

human LXRα = molecular target: T2, human LXRα (Homo sapiens, UniProt Q13133); assay: LXRα luciferase reporter gene assay, inhibition of activation by GW3965 (pGAL4-LXRα / pGL5-UAS 9x) in HepG2 cells
T2 construct: DNA constructs encoding human LBD domains of human PPARα, PPARγ, of LXRα (pGAL4-PPARα, pGAL4-PPARγ, pGAL4-LXRα); expressed in transfected cells; host or cells: HepG2
T2 sequence (Q13133 209-447 limits assumed): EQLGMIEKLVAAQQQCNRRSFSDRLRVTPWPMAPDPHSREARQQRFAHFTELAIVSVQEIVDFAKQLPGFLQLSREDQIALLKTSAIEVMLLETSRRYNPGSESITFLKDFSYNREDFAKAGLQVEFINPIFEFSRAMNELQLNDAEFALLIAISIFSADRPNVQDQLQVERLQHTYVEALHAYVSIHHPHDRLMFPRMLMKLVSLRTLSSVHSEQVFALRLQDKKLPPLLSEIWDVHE
Description: Bezafibrate, GW7647 and WY14643 are known PPARα ligands. […] GW3965 is known high-affinity LXRα ligand.
Inverse agonistic/antagonistic activities of tested compounds to LXRα receptor activated by the LXRα agonist GW3965(10 µM). […] Negative value indicates inverse agonism.
as §1

human PPARγ = molecular target: T3, human PPARγ (Homo sapiens, UniProt P37231); assay: PPARγ luciferase reporter gene assay (pGAL4-PPARγ / pGL5-UAS 9x) in HepG2 cells; conditions: HepG2, 24 h
T3 construct: DNA constructs encoding human LBD domains of human PPARα, PPARγ, of LXRα (pGAL4-PPARα, pGAL4-PPARγ, pGAL4-LXRα); expressed in transfected cells; host or cells: HepG2
T3 sequence (P37231 238-503 limits assumed): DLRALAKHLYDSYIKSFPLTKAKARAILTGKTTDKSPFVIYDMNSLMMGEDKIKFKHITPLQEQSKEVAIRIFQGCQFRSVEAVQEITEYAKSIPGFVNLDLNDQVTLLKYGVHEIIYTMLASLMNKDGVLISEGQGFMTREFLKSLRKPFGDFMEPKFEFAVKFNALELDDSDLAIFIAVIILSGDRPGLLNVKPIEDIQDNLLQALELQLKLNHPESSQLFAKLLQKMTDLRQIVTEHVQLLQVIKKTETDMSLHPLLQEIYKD

human PPARα = molecular target: T4, human PPARα (Homo sapiens, UniProt Q07869); assay: PPARα responsive luciferase reporter gene assay (pGAL4-PPARα / pGL5-UAS 9x) in HepG2 cells; conditions: relative activation to fenofibrate 10 µM (100%), HepG2, 24 h, negative value indicates inverse agonism
T4 construct: DNA constructs encoding human LBD domains of human PPARα, PPARγ, of LXRα (pGAL4-PPARα, pGAL4-PPARγ, pGAL4-LXRα); expressed in transfected cells; host or cells: HepG2
T4 sequence (Q07869 239-466 limits assumed): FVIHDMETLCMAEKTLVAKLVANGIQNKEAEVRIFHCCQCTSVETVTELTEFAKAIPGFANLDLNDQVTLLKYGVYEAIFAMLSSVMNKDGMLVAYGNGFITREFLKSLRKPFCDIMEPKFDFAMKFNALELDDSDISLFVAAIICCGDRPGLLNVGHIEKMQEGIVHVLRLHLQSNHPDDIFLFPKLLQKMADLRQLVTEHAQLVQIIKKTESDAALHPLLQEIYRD
From the text: Bezafibrate, GW7647 and WY14643 are known PPARα ligands. […] GW3965 is known high-affinity LXRα ligand. […]
as §1

TGR5 = molecular target: T5, TGR5 (Homo sapiens, UniProt Q8TDU6); assay: TGR5 luciferase reporter assay; conditions: relative activation to LCA 10 µM (100%), negative value indicates inverse agonism
T5 sequence (Q8TDU6 1-330): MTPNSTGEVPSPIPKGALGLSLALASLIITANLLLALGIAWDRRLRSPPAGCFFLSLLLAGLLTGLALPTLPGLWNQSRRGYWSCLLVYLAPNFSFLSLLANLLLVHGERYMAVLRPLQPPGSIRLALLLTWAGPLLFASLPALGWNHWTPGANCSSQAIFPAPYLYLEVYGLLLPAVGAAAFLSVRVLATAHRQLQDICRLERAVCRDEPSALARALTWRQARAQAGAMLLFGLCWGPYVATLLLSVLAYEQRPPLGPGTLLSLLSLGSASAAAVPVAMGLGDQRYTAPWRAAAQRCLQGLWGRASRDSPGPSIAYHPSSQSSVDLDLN

[1] = HepG2, 24 h; read-out: LXRα antagonism

| SMILES | Emax at 10 µM (human FXR) | Emax at 10 µM (human PPARγ) | Emax at 10 µM (human PPARα) | Emax at 10 µM (TGR5) | inhibition at 10 µM (human LXRα; [1]) | inhibition at 10 µM (human LXRα; HepG2, 24 h, read-out: LXRα antagonism) |
| --- | --- | --- | --- | --- | --- | --- |
| C[C@@H](Oc1ccc(Oc2cnc3cc(Cl)ccc3n2)cc1)C(=O)O [compound 64, (R)-2-(4-((6-Chloroquinoxalin-2-yl)oxy)phenoxy)propanoic acid] | 1% | – | – | – | – | 17% |
| CC(C)(Oc1ccc(Oc2ccc3ccc(Cl)cc3n2)cc1)C(=O)O [compound 55, 2-(4-((7-Chloroquinolin-2-yl)oxy)phenoxy)-2-methylpropanoic acid] | 0% | -2% | 1% | -15% | – | – |
| Cc1cc(C)c2ccc(Oc3ccc(O[C@H](C)C(=O)O)cc3)nc2c1 [compound 45, (R)-2-(4-((5,7-Dimethylquinolin-2-yl)oxy)phenoxy)propanoic acid] | 7% | 17% | 0% | – | 43% | – |
| C[C@@H](Oc1ccc(Oc2ccc3c(C(F)(F)F)cccc3n2)cc1)C(=O)O [compound 43, (R)-2-(4-((5-(Trifluoromethyl)quinolin-2-yl)oxy)phenoxy)propanoic acid] | 1% | -1% | -5% | – | 48% | – |
| CCc1ccc2ccc(Oc3ccc(O[C@H](C)C(=O)O)cc3)nc2c1 [compound 44, (R)-2-(4-((7-Ethylquinolin-2-yl)oxy)phenoxy)propanoic acid] | 15% | 4% | 0% | – | 7% | – |
| C[C@@H](Oc1ccc(Oc2ccc3cc(Cl)ccc3n2)cc1)C(=O)O [compound 36, (R)-2-(4-((6-Chloroquinolin-2-yl)oxy)phenoxy)propanoic acid] | 19% | 23% | -5% | – | 36% | – |

The next lines start with results.

| Emax at 10 µM (human FXR) | Emax at 10 µM (human PPARγ) | Emax at 10 µM (human PPARα) | Emax at 10 µM (TGR5) | inhibition at 10 µM (human LXRα; [1]) | SMILES | inhibition at 10 µM (human LXRα; HepG2, 24 h, read-out: LXRα antagonism) |
| --- | --- | --- | --- | --- | --- | --- |
| 7% | 2% | 0% | 43% | – | C[C@@H](Oc1ccc(Oc2cnc3ccccc3n2)cc1)C(=O)O [compound 62] | – |
| 3% | 1% | 46% | – | – | CC(=O)Nc1ccc2ncc(Oc3ccc(O[C@H](C)C(=O)O)cc3)nc2c1 [compound 69, (R)-2-(4-((7-Acetamidoquinoxalin-2-yl)oxy)phenoxy)propanoic acid] | – |
| -3% | 2% | 1% | – | – | Cc1ccc2ncc(Oc3ccc(O[C@H](C)C(=O)O)cc3)nc2c1 [compound 66, (R)-2-(4-((7-Methylquinoxalin-2-yl)oxy)phenoxy)propanoic acid] | – |
| -2% | 2% | 69% | -3% | – | C[C@@H](Oc1ccc(Oc2cnc3ccc(Br)cc3n2)cc1)C(=O)O [compound 65, (R)-2-(4-((7-Bromoquinoxalin-2-yl)oxy)phenoxy)propanoic acid] | – |
| 6% | 1% | 59% | 20% | – | CC(=O)Nc1ccc2ncc(Oc3ccc(OCC(=O)O)cc3)nc2c1 [compound 73, 2-(4-((7-Acetamidoquinoxalin-2-yl)oxy)phenoxy)acetic acid] | – |

Source: EP4583874B1, “MULTITARGET NUCLEAR RECEPTOR LIGANDS BASED ON 2-(4-(QUINOLIN-2-YLOXY)PHENOXY)PROPANOIC ACID AND 2-(4-(QUINOXALIN-2-YLOXY)PHENOXY)PROPANOIC ACID FOR THE TREATMENT OF METABOLIC AND LIVER DISEASES” (CHARLES UNIVERSITY, FACULTY OF PHARMACY IN HRADEC KRALOVE, priority 2022, dated 2024)
